Source: publication PMC10981997, “PEDF peptide plus hyaluronic acid stimulates cartilage regeneration in osteoarthritis via STAT3-mediated chondrogenesis” (Bone & Joint Research, 2024)

Key:
BM-MSCs = assay: BrdU incorporation (proliferation) of BM-MSCs in expansion medium; format: cell-based, rat; conditions: pretreatment before 29-mer 10 μM, p < 0.001 vs 29-mer
Source text: Sprague-Dawley rats were anaesthetized and their femora were aseptically harvested, washed in a mixture of PBS and 1% penicillin/streptomycin for five minutes, dissected of all soft-tissue, transected at their epiphysis, and their marrow cavity rinsed repeatedly with a mixture of heparin (AGGLUTEX INJ 5,000 U/ml; working conc. 100 U/ml) and Dulbecco’s Modified Eagle Medium (DMEM; Gibco, Thermo Fisher Scientific). The harvested cells were collected, dispersed by pipetting, and centrifuged at 1,000× g for five minutes at RT. Cell pellets were resuspended with DMEM and then the cell suspension was transferred to a 15 ml centrifuge tube containing 5 ml of Percoll (1.073 g/ml; MilliporeSigma). After centrifugation at 1,500× g for 30 minutes, the mononuclear cells in the middle layer were obtained, washed three times with PBS, and suspended in expansion medium (low-glucose DMEM with 10% heat-inactivated FBS, 1% penicillin/streptomycin). […] BrdU immunostaining of BM-MSCs was performed as in Ho et al’s[14] study.
BM-MSCs were expanded for seven days in culture and then exposed to the 29-mer (10 μM) for 24 hours. Cell proliferation was detected by BrdU pulse-labelling for four hours and analyzed by BrdU immunostaining (red colour; Figure 1a).

articular cartilage (AC) = assay: In vivo BrdU labelling and immunostaining of chondrogenic markers in damaged AC; set-up: species or system rat; conditions: inhibitor 1 mM in 25 µl 5% HA intra-articular 60 min before 29-mer/HA at days 8 and 12
Method: Rats were anaesthetized by an intraperitoneal injection of xylazine (10 mg/kg) and then the right knees were injected with MIA (1 mg dissolved in 25 µl of sterile saline), using a 27-gauge needle through the patellar ligament of the knees.[18],[19] The left knee joints (control) were injected with saline. To prepare the 29-mer/HA, the 29-mer was dissolved in dimethylsulfoxide (DMSO) to make a 10 mM stock solution. Equal volumes of DMSO and 29-mer (0.5 µl) were dissolved in HA. At days 8 and 12 after MIA injection, the right knees (n = 6 per group) were randomly injected by: 1) 29-mer/25 µl of 5% HA (final concentration of 29-mer at 0.2 mM); 2) DMSO vehicle/5% HA; 3) control peptide/5% HA; 4) 5% HA alone; and 5) 29-mer/25 µl of phosphate-buffered saline (PBS; final concentration of 29-mer at 0.2 mM). […]
BrdU was reconstituted in DMSO as stock (80 mM). […] Deparaffinized sections were treated with 1N HCl at RT for 1 h, and DNA synthesis was assessed by anti-BrdU antibody. […] Images were captured using a Zeiss epifluorescence microscope with a CCD camera (Zeiss, Germany), and blinded quantification was performed in triplicate by manually counting within each section. […]

SMILES: C[C@H]1COC2=C1C(=O)C(=O)c1c2ccc2c1CCCC2(C)C [CPT, cryptotanshinone]
- effect of inhibitor pretreatment on the 29-mer-induced BrdU+ levels (BM-MSCs): significantly suppressed
- effect of inhibitor on 29-mer/HA-induced BrdU-labelled chondrocytes (articular cartilage (AC)): blocked

SMILES: CN(C)C(=O)Nc1cccc(-c2ccc(N(C)C)cc2)c1 [atglistatin, Atglistatin]
- effect of inhibitor pretreatment on the 29-mer-induced BrdU+ levels (BM-MSCs): significantly suppressed
- effect of inhibitor on 29-mer/HA-induced BrdU-labelled chondrocytes (articular cartilage (AC)): blocked
